Assay results: patent publication US8440718B2, “Modulation of inflammation related to columnar epithelia” (The Brigham and Women's Hospital, Inc., priority 1991, dated 2013)
Marks after values point to notes of the source that are not given here.

Columns and labels:
[1] = system: human PMN migration across inverted T84 epithelial monolayers; assay: PMN transepithelial migration assay, basolateral-to-apical direction (inverted monolayers), fMLP gradient, myeloperoxidase readout; format: cell-based; details: for inhibition of PMN migration, basolateral-to-apical (total MPO activity): 10 nM, 15 min pre-incubation 37°C, 1 μM fMLP, 120 min
Experimental: Cell culture Approximately 350 epithelial monolayers were used for these studies. T84 intestinal epithelial cells (passages 70-95) were grown and maintained as confluent monolayers on collagen coated permeable support. Monolayers were grown on 0.33 cm^2 ring-supported polycarbonate filters (Costar Corp., Cambridge, Mass.) and utilized 6-14 days after plating as described in Example 2. Transepithelial resistance to passive ion flow was measured as described in Parkos C. A., et al. (1991). J. Clin. Invest. 88: 1605-1612); and Parkos C. A., et al. (1992). J. Cell. Biol. 117: 757-764). Inverted monolayers used to study migration of PMN in the basolateral-to-apical direction were constructed as described in Parkos C. A., et al. (1991). J. Clin. Invest. 88:1605-1612).
Migration assay: The PMN transepithelial migration assay has been detailed in Nash S., et al. (1987). J. Clin. Invest. 80: 1104-1113; Nash S., et al. (1991). J. Clin. Invest 87: 1474-1477); Parkos C. A., et al. (1991). J. Clin. Invest. 88: 1605-1612); and Parkos C. A., et al. (1992). J. Cell. Biol. 117: 757-764. Briefly, human PMN were isolated from normal human volunteers and suspended in modified HBSS (without Ca^2+ and Mg^2+, with 10 mM Hepes, pH 7.4, Sigma) at a concentration of 5×10^7/ml. Prior to addition of PMN, T84 monolayers were extensively rinsed in HBSS to remove residual serum components. Migration assays were performed by the addition of PMN (40 μl) to HBSS ([…]) in the upper chambers after chemoattractant (1 μM fMLP in HBSS) was added to the opposing (lower) chambers. Unless otherwise indicated, PMN were not washed free of LXA4 prior to addition to monolayers, and therefore, a five-fold dilution of lipoxin was present during the migration assay. For apical-to-basolateral migration experiments, PMN (2×10^6) were added at time 0. Migration in the basolateral-to-apical direction, while qualitatively similar, is substantially more efficient than in the apical-to-basolateral direction. (Parkos C. A., et al. (1991). J. Clin. Invest. 88: 1605-1612). Therefore, 5-fold fewer PMN (4×10^5) were added when migration proceeded in the basolateral-to-apical direction in order that baseline migration signals be approximately equivalent in both directions. (Parkos C. A., et al. (1991). J. Clin. Invest. 88: 1605-1612). Migration was allowed to proceed for 120 minutes, unless otherwise noted. All PMN transepithelial migration experiments were performed in a 37° C. room to ensure that epithelial monolayers, solutions, plasticware, etc., were maintained at uniform 37° C. temperature.
Migration was quantitated by assaying for the PMN azurophilic granule marker myeloperoxidase (MPO) as described previously (Parkos C. A., et al. (1991). J. Clin. Invest 88: 1605-1612). Following each migration assay, non-adherent PMN were extensively washed from the surface of the monolayer and PMN cell equivalents (PMN CE), estimated from a standard curve, were assessed as the number of PMN's associated with the monolayer, the number which had completely traversed the monolayer (ie. across the monolayer into the reservoir bath), as well as the total number of transmigrating PMN (the sum of monolayer and reservoir-associated PMN).
Data Presentation: Individual experiments were performed using large numbers of uniform groups of monolayers and PMN from individual blood donors on individual days. PMN isolation was restricted to five different blood donors (repetitive donations) over the course of these studies. Myeloperoxidase assay data were compared by two-factor analysis of variance (ANOVA) or by comparison of means using Student's t-Test PMN migration results are represented as PMN CE derived from a daily standard PMN dilution curve. Monolayer-associated PMN are represented as the number of PMN CE per monolayer and reservoir-associated PMN (ie. PMN which had completely traversed the monolayer into the lower chamber) are represented as the number of PMN CE/ml (total volume of 1 ml). […]

[2] = system: human PMN migration across T84 epithelial monolayers; assay: Effect of inhibitors on baseline and LXA4-elicited PMN transepithelial migration, apical-to-basolateral; format: cell-based
[3] = system: neutrophil transmigration across T84 monolayers; assay: Neutrophil transmigration across T84 monolayers by resistance or myeloperoxidase assay, Example 2; format: cell-based, human; details: fMLP 10^−6 and 10^−7 M
Description: (§1) Preparation of monolayers: Normal or inverted monolayers can be constructed for a physiological microassay using the commercially available insert system (Costar inserts, 0.33 cm^2, 5 μm polycarbonate filters). The larger pore size is crucial for allowing neutrophils to penetrate the filter. Collagen 1 must coat the filters to allow attachment of T84 cells. Original descriptions of the collagen coat involved procedures in which the collagen was chemically crosslinked Dharmsathaphorn, K. et al; Meth. Enzymol. 192:354-389; 1990. Dharmsathaphom, K. et al; Am. J. Physiol. 246 (Gastrointest. Liver Physiol. 9):G204-G208; 1984.
Isolation of neutrophils: Neutrophils are isolated from whole blood using a gelatin-sedimentation technique. Briefly, whole blood, anticoagulated with citrate/dextrose, is centrifuged at 300×g for 20 minutes (20° C.). The plasma and buffy coat are carefully removed using a curved, siliconized glass pipette which is attached to a vacuum trap. Care must be taken not to aspirate the interface between the buffy coat and RBC since this is where PMN reside. […]
For measurements, bridges are positioned as described, and the spontaneous transepithelial electrical potential and the instantaneous potential generated by passing 25 μA of current are measured. […] Using these values and Ohm's Law, tissue resistance and transepithelial current are then calculated. […]

[4] = system: neutrophil transmigration across T84 monolayers; assay: Neutrophil migration across inverted T84 monolayers (basolateral to apical), myeloperoxidase assay, Example 2; format: cell-based, human; details: FMLP 10^−6 M, PMN 6 × 10^6/cm^2
Description: as §1
Inverted monolayers can also be grown using this technique. For this 0.8 mm thick lexan rings having the same dimension of the base of Costar inserts are machined, deburred, cleaned by boiling with a trace of detergent and subsequently exhaustively washed, and attached to the underside of the insert using General Electric RTV Silicone glue (this underside ring is necessary for a peripheral electrical seal). After drying overnight, the inserts are sterilized by submersion in 70% ethanol (4-hr overnight), inverted onto a sterile petri dish in a hood, and allowed to dry. Collagen and cells are added to the filter (underside now facing up) exactly as with unmodified inserts and cells are allowed to attach for 4 hours before righting the inserts into the 24 well holding plates. Subsequent treatment of the monolayers is identical to that described above.
Isolation of neutrophils: Neutrophils are isolated from whole blood using a gelatin-sedimentation technique. Briefly, whole blood, anticoagulated with citrate/dextrose, is centrifuged at 300×g for 20 minutes (20° C.). The plasma and buffy coat are carefully removed using a curved, siliconized glass pipette which is attached to a vacuum trap. […]
Myeloperoxidase assay of neutrophil transepithelial migration: PMN contents of monolayers and lower chambers can be quantitated by assaying the PMN-specific azurophil granule marker, myeloperoxidase (MPO). […]

## CCCCC[C@H](O)[C@H](O)/C=C/C=C/C=C\C=C\[C@@H](O)CCCC(=O)O (relative stereo) [LXB4, (5S, 14R, 15S)-trihydroxy-6,10,12-trans-8-cis-eicosatetraenoic acid]
[1]
  effect on PMN migration in basolateral-to-apical direction: no effect
  inhibition of PMN migration, basolateral-to-apical (total MPO activity): 7±4%

## CCCCCC(O)C=CC=CC=CC=CC(O)C(O)CCCC(=O)O (stereo not drawn) [11-trans-LXA4]
[1]
  inhibition of PMN migration, basolateral-to-apical (total MPO activity): 16±6%

## CC1CNCCN1S(=O)(=O)c1cccc2cnccc12 (stereo not shown) [Compound H7]
[2]; H7 100 μM final concentration
  inhibition of PMN transepithelial migration compared to vehicle control: 91±4%

## CC(C)c1ccc2c(c1)c(SC(C)(C)C)c(CC(C)(C)C(=O)O)n2Cc1ccc(Cl)cc1 [MK886]
[2]; MK886 10 ng/ml
  effect on LXA4-elicited increase in PMN transepithelial migration: did not effect
  effect on baseline fMLP driven PMN migration: did not alter

## COc1ccc2c(c1)c(CC(=O)O)c(C)n2C(=O)c1ccc(Cl)cc1 [indomethacin]
[2]; indomethacin 50 μM, 15 min, 37°C, fMLP gradient
  baseline PMN migration, % vehicle control: 109±13 % vehicle control

## N-formyl-Met-Leu-Phe [fMLP]
[3]
  stimulation of neutrophil transmigration: effective in stimulating transmigration
[4]
  Neutrophil Cell Equivalents In Monolayers: 5.47 × 10^4
  Neutrophil Cell Equivalents In Opposite Reservoir: 85.30^# × 10^4
  Neutrophil Cell Equivalents Total: 90.77^# × 10^4

## pertussis toxin
[2]; PMN pre-exposed to pertussis toxin 2 μg/ml, then LXA4
  inhibition of control, LXA4-elicited migration: 87±4%
[2]; pertussis toxin 2 μg/ml
  inhibition of baseline fMLP driven migration compared to vehicle control: 91±8%
